Measured values from patent US20230348394A1, “COMPOSITIONS AND METHODS FOR TREATING MUSCULAR DYSTROPHIES” (The Regents of the University of California, priority 2020, published 2023).

Tests used:
[1] = Preliminary safety assessment, IP injection in C57/B16 mice; assay type: in vivo
Description: For the preliminary safety assessment of OT-9, we performed IP injections in 6 month old C57/B16 males. The mice were injected with 100 μl of vehicle (5% DMSO (Sigma), 95% PBS), 100 μl of 30 mg/kg of OT-9 in vehicle, or 100 μl of 50 mg/kg of OT-9 in vehicle (n=1 mouse per treatment). […] For assessment of activity, 20-weeks old male mdx littermates were injected in both tibialis anterior muscles with vehicle (5% DMSO, 95% PBS) or 86 μg of OT-9. Two mice were injected in both TAs with vehicle and three mice were injected in both TAs with 200 of OT-9 (9.4 mM solution containing 86 μg of OT-9). After 4 hours, the muscles were harvested and processed for gene expression analysis. For assessment of activity of OT-9m after local administration, 19-22-weeks old mdx males were injected in both tibialis anterior muscles with vehicle (5% DMSO, 95% PBS) or 3 mg/kg and 10 mg/kg of OT-9m. After 4 hours, the muscles were harvested and processed for gene expression analysis. For assessment of activity of OT-9m after systemic administration, 13-weeks old mdx males were injected subcutaneously with vehicle (4% PEG-200 in hydroxypropyl-b-cyclodextrin) or 20 mg/kg/day of OT-9m. After 13 days of treatment, the muscles were harvested and processed for gene expression analysis.
To evaluate the in vivo safety and activity of OT-9, we performed two pilot studies in wild-type C57/B16 and mdx mice. For the preliminary safety assessment of OT-9, we performed IP injections in 6-month old C57/B16 males. The mice were injected with vehicle, 30 mg/kg of OT-9, or 50 mg/kg of OT-9 (n=1).

SSPN mRNA = assay: SSPN gene expression in wild-type C2C12 myotubes; assay type: cell-based, mouse
Description: C2C12 cells (American Type Culture Collection) were grown at 37° C. with 5% CO2 in growth medium containing DMEM (Gibco) with 20% FBS (Sigma-Aldrich). Upon reaching 90-100% confluency, myoblasts were induced to differentiate by replacing the medium with differentiation medium consisting of DMEM with 2% horse serum (Sigma-Aldrich). Conditionally immortalized H2K WT and mdx myoblasts with a nonsense mutation in exon 23 of dystrophin were a gift from Terrance Partridge, Ph.D. (Children's National Medical Center, Washington, D.C.). See, Morgan et al., Dev Biol. 1994; 162(2):486-98 Myoblasts were allowed to proliferate on 0.01% gelatin (Sigma-Aldrich) coated plates at 33° C. with 5% CO2 with growth medium containing DMEM, 20% HI-FBS (Invitrogen), 2% L-glutamine (Sigma-Aldrich), 2% chicken embryo extract (Accurate Chemical), 1% penicillin-streptomycin (Sigma-Aldrich), and 20 U/ml of fresh interferon gamma (Gibco). […]
RNA from myotubes treated for 48 hrs was extracted from cells using Trizol-based (Thermo Fisher Scientific) phase separation, Chomczynski et al., Biotechniques. […] RNA concentrations were determined using a NanoDrop 1000 (Thermo Fisher Scientific) and 750 ng of RNA in a 20 Id reaction was reverse transcribed using iScript cDNA synthesis (Bio-Rad) with the following cycling conditions: 25° C. for 5 mins, 42° C. for 30 mins, 85° C. for 5 mins. For mouse qPCR, SsoFast EvaGreen Supermix (Bio-Rad), 400 nM of each optimized forward and reverse primer (SSPN F: 5′ […] 3′, SSPN R: 5′ […] 3′, BACT F: 5′ […] 3′, BACT R: 5′ […] 3′), and cDNA corresponding to 37.5 ng RNA were used to amplify cDNA measured by QuantStudio 5 Real-Time PCR System (Thermo Fisher Scientific) with the following reaction conditions: 55° C. for 2 mins, 95° C. for 2 mins, 40 cycles of 95° C. for 10 seconds and 62° C. for 30 seconds, and dissociation stage. […] Data was analyzed using the ddCT method and normalized to reference gene ACTB with vehicle-treated samples serving as the calibrator (relative expression of vehicle control=1). […]

[2] = IP 30 mg/kg or 50 mg/kg, observed 72 hours, n=1

CCN(CC)c1ccc2cc(C(=O)Nc3ccc(C(=O)N4CCCCCC4)cc3)c(=O)oc2c1 [OT-9]
appearance of the dosing solution ([1]; 50 mg/kg solution in 5% DMSO, 95% PBS): some insoluble particles were observed
liver, kidneys, pancreas and intestine [1, 2]: normal weight and size
observation of the injection site [1, 2]: No signs of inflammation, necrosis or compound accumulation
SSPN mRNA levels after compound removal (SSPN mRNA; 5 μM for 4 hours, 4, 24 and 48 hours after compound removal): returned to baseline levels
SSPN mRNA levels over the vehicle control (SSPN mRNA; 5 μM for 4 hours, immediately after compound removal (0h)): 1.5 fold
SSPN mRNA levels (SSPN mRNA; 5 μM, 48 hours): increased SSPN mRNA levels
